{
  "source": "patent US20110053804A1",
  "about": "“Gene Signatures for the Prognosis of Cancer” (SLOAN-KETTERING INSTITUTE FOR CANCER RESEARCH, priority 2008, published 2011)",
  "format_in_all_cases": "in vivo, mice",
  "key": {"LM2 cells [1]": {"system": "LM2 cells", "test": "Lung colonization (priming) assay, tail vein injection of TGFβ-pretreated LM2 cells", "procedure": "(§1) FIGS. 3A-D. (A) LM2 cells and a clinically-derived pleural effusion sample (CN34.2A) were pretreated with TGFβ for 6 h. LM2 (2×10^5) and CN34.2A (4×10^5) cells were injected into the lateral tail vein and lung colonization was analyzed by in vivo bioluminescence imaging. (B) Bar graph represents 24 h time point measurements of the normalized photon flux from animals injected with either LM2 or CN34.2A cells. (C) Bone metastasis assays were performed by intracardiac injection of LM2 or BoM-1833 cells (3×10^4). Samples were pretreated with […] of TGFβ for 6 h and compared to an untreated control. […]\n(§2) All animal work was done in accordance with a protocol approved by the MSKCC Institutional Animal Care and Use Committee. […] Seven days after mastectomies, lung metastases were monitored and quantified using non-invasive bioluminescence as previously described (Minn et al., 2005).\n(§3) For primary tumor analysis, 5×10^5 viable single cells were re-suspended in a 1:1 mixture of PBS and growth-factor-reduced Matrigel (BD Biosciences) and injected orthotopically into both mammary gland number four in a total volume of 100 μL as previously described (Minn et al., 2005). Primary tumor growth rates were analyzed by measuring tumour length (L) and width (W), and calculating tumor volume based on the formula […]. […] Lung metastatic progression was again monitored and quantified using bioluminescence. […]"}, "CN34.2A cells": {"system": "CN34.2A cells", "test": "Lung colonization (priming) assay, tail vein injection of TGFβ-pretreated CN34.2A cells", "conditions": "CN34.2A cells pre-treated with TGFβ 6 h; 24 h time point, normalized photon flux", "procedure": "as §1, §2, §3"}, "LM2 cells [2]": {"system": "LM2 cells", "test": "Bone metastasis assay, intracardiac injection of TGFβ-pretreated LM2 cells", "conditions": "LM2 cells pre-treated with TGFβ prior to inoculation into the arterial circulation", "procedure": "(§4) FIGS. 3A-D. (A) LM2 cells and a clinically-derived pleural effusion sample (CN34.2A) were pretreated with TGFβ for 6 h. LM2 (2×10^5) and CN34.2A (4×10^5) cells were injected into the lateral tail vein and lung colonization was analyzed by in vivo bioluminescence imaging. (B) Bar graph represents 24 h time point measurements of the normalized photon flux from animals injected with either LM2 or CN34.2A cells. (C) Bone metastasis assays were performed by intracardiac injection of LM2 or BoM-1833 cells (3×10^4). Samples were pretreated with […] of TGFβ for 6 h and compared to an untreated control. (D) Bar graphs represent seven-day time point analysis of the normalized photon flux from the mouse hind limbs.\n(§5) To investigate the selectivity of this lung metastasis-priming effect, we tested the effect of TGFβ pre-incubation on the establishment of bone metastases. […]\nas §3"}, "BoM-1833 cells": {"system": "BoM-1833 cells", "test": "Bone metastasis assay, intracardiac injection of TGFβ-pretreated BoM-1833 cells", "conditions": "BoM-1833 cells pre-incubated with TGFβ", "procedure": "as §4, §5, §3"}},
  "data": [
    {"substance": "TGFβ: cytokine transforming growth factor beta; TGFβ1 (R&D Systems) used to treat cells for 3 or 6 h", "values": [
      {"measurement": "lung colonizing activity (retention of cells in the lungs)", "setting": "LM2 cells [1]; LM2 cells incubated with TGFβ for 6 h prior to tail vein inoculation, 24 h after inoculation, bioluminescence", "value": "significantly increased"},
      {"measurement": "increase of lung seeding activity", "setting": "LM2 cells [1]; LM2 cells pre-treated with TGFβ 6 h, 24 h time point, normalized photon flux", "value": "three"},
      {"measurement": "increase of lung seeding activity", "setting": "CN34.2A cells", "value": "five"},
      {"measurement": "ability to form bone metastases", "setting": "LM2 cells [2]", "value": "did not increase"},
      {"measurement": "ability to form bone metastases", "setting": "BoM-1833 cells", "value": "did not increase"},
      {"measurement": "early seeding of the bones", "setting": "BoM-1833 cells; seven-day time point, hind limbs", "value": "no discernible effect"}
    ]}
  ]
}
